Reference: patent US20250250608A1, “METHODS AND COMPOSITIONS FOR ASSAYING BETA-HEXOSAMINIDASE ENZYMATIC ACTIVITY VIA MASS SPECTROMETRY” (GelbChem, LLC, priority 2024, published 2025)

How the values were obtained:
HexA/B = experiment: Enzyme kinetics of HexA/B with the HexA/B substrate, endogenous enzymes from healthy adult dried blood spots, LC-MS/MS detection; assay type: biochemical; details: read-out: Michaelis-Menten constant (Km)
Procedure: 3.2 mm punches were taken from dried blood samples. The punches were added into a well of a multiwell plate and in particular, a 1.0 mL deep-well 96-well plate. Following, 30 μL of the duplex assay cocktail described above was added to each well. The plate was sealed with a silicone sealing mat and shaken at 250 rpm for 4 hours at 37° C. in an orbital shaker incubator. After incubation, the enzymatic reaction was quenched by adding 100 μL of methanol: ethyl acetate (1:1) and mixed by pipetting up and down ˜10 times. Analytes were extracted by adding sodium chloride solution (0.5 M, 200 μL) and ethyl acetate (400 μL) to each well and mixed by pipetting up and down ˜10 times. […]
(§1) Analytes were detected via a WATERS™ Xevo TQ triple-quadrupole mass spectrometer. […] The following MRM traces were monitored for quantitation: HexA enzymatic reaction product (456.5>356.1), HexA/B enzymatic reaction product (461.5>361.2), and internal standard (465.5>357.1). […]
Enzyme kinetics of HexA and HexA/B were measured in relationship to the HexA substrate and HexA/B substrate, respectively, using endogenous enzymes from healthy adult dried blood spots. […]
The reaction rate for each substrate at different substrate concentrations was measured and the relationship found to be hyperbolic.

HexA [1] = molecular target: T1, HexA (Homo sapiens, UniProt P06865); experiment: Competitive inhibition: HexA activity with the HexA substrate in presence and absence of the HexA/B substrate, dried blood spots from healthy individuals; assay type: biochemical; details: HexA substrate in presence vs absence of HexA/B substrate
T1 construct: using endogenous enzymes from healthy adult dried blood spots; from tissue; host or cells: dried blood spots from healthy adults/individuals (3.2 mm punches)
T1 sequence (P06865 89-529): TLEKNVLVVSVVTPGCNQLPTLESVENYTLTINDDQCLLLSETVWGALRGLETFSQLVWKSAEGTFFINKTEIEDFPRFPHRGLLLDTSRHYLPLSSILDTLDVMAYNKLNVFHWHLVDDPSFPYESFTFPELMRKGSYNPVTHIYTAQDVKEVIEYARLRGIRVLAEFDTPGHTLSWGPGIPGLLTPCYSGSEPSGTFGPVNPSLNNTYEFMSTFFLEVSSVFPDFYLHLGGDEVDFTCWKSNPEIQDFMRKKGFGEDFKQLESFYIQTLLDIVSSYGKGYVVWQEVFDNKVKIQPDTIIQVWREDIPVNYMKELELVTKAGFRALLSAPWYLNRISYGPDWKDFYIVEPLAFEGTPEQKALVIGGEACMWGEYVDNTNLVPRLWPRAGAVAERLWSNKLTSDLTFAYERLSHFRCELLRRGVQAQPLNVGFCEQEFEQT
T1 sequence (P07686 122-556 partner): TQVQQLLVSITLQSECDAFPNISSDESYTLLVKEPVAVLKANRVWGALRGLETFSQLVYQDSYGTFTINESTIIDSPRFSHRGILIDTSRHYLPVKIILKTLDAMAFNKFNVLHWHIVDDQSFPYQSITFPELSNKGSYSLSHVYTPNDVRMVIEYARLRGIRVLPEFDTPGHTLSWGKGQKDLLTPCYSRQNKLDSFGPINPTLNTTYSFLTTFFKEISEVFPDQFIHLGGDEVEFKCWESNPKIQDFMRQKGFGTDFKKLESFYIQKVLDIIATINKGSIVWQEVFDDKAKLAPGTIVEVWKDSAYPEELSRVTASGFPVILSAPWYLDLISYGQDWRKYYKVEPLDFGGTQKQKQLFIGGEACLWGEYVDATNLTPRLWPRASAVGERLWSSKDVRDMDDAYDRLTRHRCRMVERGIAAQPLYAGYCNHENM
Procedure: The HexA/B substrate binds to both HexA and HexB, whereas the HexA substrate binds to only the HexA; thus, the HexA/B substrate may theoretically block the action of HexA on the HexA substrate by competitive binding (i.e. competitive inhibition). An experiment was done to test this theory where HexA enzymatic activity was measured in dried blood spots from healthy individuals using the HexA substrate in the presence and absence of the HexA/B substrate.

[2] = Substrate stability over incubation in sodium formate buffer; assay type: physicochemical; details: 24 hour incubation at 37° C. in sodium formate buffer; read-out: recovery of the substrates (stability)
HexA [3] = molecular target: T1, HexA; experiment: Analytical range of duplex assay, HexA activity; assay type: biochemical; details: dried blood spots
Procedure: 3.2 mm punches were taken from dried blood samples. The punches were added into a well of a multiwell plate and in particular, a 1.0 mL deep-well 96-well plate. Following, 30 μL of the duplex assay cocktail described above was added to each well. The plate was sealed with a silicone sealing mat and shaken at 250 rpm for 4 hours at 37° C. in an orbital shaker incubator. After incubation, the enzymatic reaction was quenched by adding 100 μL of methanol: ethyl acetate (1:1) and mixed by pipetting up and down ˜10 times. Analytes were extracted by adding sodium chloride solution (0.5 M, 200 μL) and ethyl acetate (400 μL) to each well and mixed by pipetting up and down ˜10 times. The plate was centrifuged at 3000×g for 5 min at ambient temperature, then 200 μL of the upper ethyl acetate layer was transferred to a 96-well microplate. […]
as §1
The analytical range, as calculated by dividing the enzymatic activity in healthy individual samples over the enzymatic activity in a blank, was determined to be 82 for the HexA substrate and 3,400 for the HexA/B substrate.

| Compound | Km (HexA/B) | competitive inhibition of HexA enzymatic activity on the HexA substrate (HexA [1]) | recovery at 24 h [2] | analytical range (enzymatic activity in healthy individual samples over enzymatic activity in a blank) (HexA [3]) |
| --- | --- | --- | --- | --- |
| [2H]c1c([2H])c([2H])c(C(=O)NCCCCN(CCC(=O)Nc2ccc(OC3OC(CO)C(O)C(O)C3NC(C)=O)cc2)C(=O)OC(C)(C)C)c([2H])c1[2H] (centres unmarked) [HexA/B substrate] | 3.06 mM | no competitive inhibition | > 100% | – |
| CC(=O)NC1C(Oc2ccc(NC(=O)CCN(CCCCNC(=O)c3ccccc3)C(=O)OC(C)(C)C)cc2)OC(COS(=O)(=O)O)C(O)C1O (centres unmarked) [HexA substrate] | – | – | > 100% | 82 |
